The values below come from US6841567B1, “Cyclic substituted fused pyrrolocarbazoles and isoindolones” (Cephalon, Inc., priority 1999, dated 2005).

Assay [1] has as its target T1, baculovirus-expressed human trkA cytoplasmic domain (Homo sapiens, UniProt P04629).
T1 construct: baculovirus-expressed human trkA cytoplasmic domain; made in house; host or cells: baculovirus expression system
The assay can be described thus: Inhibition of trkA tyrosine kinase activity (ELISA-based assay). The assay is classed as biochemical. Particulars: for IC50: 40 μM ATP; for trkA kinase activity % Inh. @ 300 nM (values in parentheses): 300 nM compound. The method, then: Selected cyclic substituted fused pyrrolocarbazole and isoindolone compounds were tested for their ability to inhibit the kinase activity of baculovirus-expressed human trkA cytoplasmic domain using an ELISA-based assay as previously described (Angeles et al., Anal. Biochem. 236: 49-55, 1996). Briefly, the 96-well microtiter plate was coated with substrate solution (recombinant human phospholipase C-γ1/glutathione S-transferase fusion protein (Rotin et al., EMBO J., 11: 559-567, 1992). Inhibition studies were performed in 100 μl assay mixtures containing 50 mM Hepes, pH 7.4, 40 μM ATP, 10 mM MnCl2, 0.1% BSA, 2% DMSO, and various concentrations of inhibitor. The reaction was initiated by addition of trkA kinase and allowed to proceed for 15 minutes at 37° C. An antibody to phosphotyrosine (UBI) was then added, followed by a secondary enzyme-conjugated antibody, alkaline phosphatase-labelled goat antII-mouse IgG (Bio-Rad). The activity of the bound enzyme was measured via an amplified detection system (Gibco-BRL). Inhibition data were analyzed using the sigimoidal dose-response (variable slope) equation in GraphPad Prism.
On the technique in general: In an ELISA, binding on a coated surface is turned into a signal by an enzyme label.

Assay [2] addresses T2, trkA (NIH3T3 cells transfected with trkA) (Homo sapiens, UniProt P04629).
T2 construct: expressed in transfected cells; host or cells: NIH3T3
Nature of the assay: Inhibition of NGF-stimulated trk phosphorylation in a whole cell preparation. It is filed as cell-based. To be noted: NGF 10 ng/ml; for Cell Score @ 100 nM (percent decrease in trk protein band): 100 nM compound; for Cell Score @ 1 uM (percent decrease in trk protein band): 1 uM compound. Here is the method: NIH3T3 cells transfected with trkA were grown in 100 mm dishes. Subconfluent cells were serum-starved by replacing media with serum-free 0.05% BSA-DMEM containing compound (100 nM and 1 μM) or DMSO (added to controls) for one hour at 37° C. NGF (Harlan/Bioproducts for Science) was then added to the cells at a concentration of 10 ng/ml for 5 minutes. Cells were lysed in buffer containing detergent and protease inhibitors. Clarified cell lysates were normalized to protein using BCA method and immunoprecipitated with antII-trk antibody. Polyclonal antII-trk antibody was prepared against a peptide corresponding to the 14 amino acids at the carboxy terminus of trk (Martin-Zanca et al., Mol. Cell. Biol. 9: 24-33, 1989). The immune complexes were collected on Protein A Sepharose beads (Sigma Chem. Co., St. Lois, Mo.), separated by SDS polyacrylamide gel electrophoresis (SDS-PAGE), and transferred to a polyvinylidene difluoride (PVDF) membrane. The membrane was immunoblotted with antII-phosphotyrosine antibody (UBI), followed by incubation with horseradish peroxidase coupled goat antII-mouse IgG (Bio-Rad Laboratories, Hercules, Calif.). Phosphorylated proteins were visualized using ECL (Arnersham Life Science, Inc., Arlington Heights, Ill.). The area of the trk protein band was measured and compared to NGF-stimulated control. The inhibition scoring system used, based on percent decrease in trk protein band, was as follows: 0=no decrease; 1=1-25%; 2=26-49%; 3=50-75%; 4=76-100%.

Assay [3] concerns the target T3, PDGFβ receptor kinase domain (recombinant human PDGFRβ) (Homo sapiens, UniProt P09619).
T3 construct: kinase activity of baculovirus-expressed PDGFβ receptor kinase domain; made in house; host or cells: baculovirus expression system
Nature of the assay: Inhibition of platelet derived growth factor receptor kinase activity (ELISA). The assay is classed as biochemical. To be noted: for inhibition at 0.3 µM: read-out: PDGFRβ % inh @ 300 nM (values in parentheses). Here is the method:
Cyclic substituted fused pyrrolocarbazole and isoindolone compounds were examined for their inhibitory effects on the kinase activity of baculovirus-expressed PDGFβ receptor kinase domain using the trkA kinase ELISA described above. Assays were performed in substrate (PLC-γ/GST)-coated 96-well microtiter plates. Each 100-μl reaction mixture contained 50 mM HEPES, pH 7.4, 20 μM ATP, 10 mM MnCl2, 0.1% BSA, 2% DMSO, and various concentrations of inhibitor. The reaction was initiated by addition of prephosphorylated recombinant human enzyme (10 ng/ml PDGFRβ) and allowed to proceed for 15 minutes at 37° C. The prephosphorylated enzyme was prepared prior to use by incubation of the kinase in buffer containing 20 μM ATP and 10 mM MnCl2 for 1 hour at 4° C. Detection of phosphorylated product was done by adding horseradish peroxidase (HRP)-conjugated antII-phosphotyrosine antibody (UBI). The HRP substrate solution containing 3,3′-5,5′-tetramethylbenzidine and hydrogen peroxide was later added and the plates were incubated for 10 minutes at room temperature. The reaction was quenched with acid and the resulting absorbance was read at 450 nm using a Microplate Bio-kinetics Reader (Bio-Tek Instrument EL 312e). Inhibition data were analyzed using the sigmoidal dose-response (variable slope) equation in GraphPad Prism.

Assay [4] has as its target T4, VEGF receptor (human flk-1, KDR, VEGFR2) kinase domain (Homo sapiens, UniProt P35968).
T4 construct: VEGF receptor (human flk-1, KDR, VEGFR2) kinase domain; made in house; host or cells: baculovirus expression system
Nature of the assay: Inhibition of vascular endothelial growth factor receptor kinase activity (ELISA). It is filed as biochemical. To be noted: for inhibition at 0.3 µM: read-out: VEGF receptor kinase activity % Inh. @ 300 nM (values in parentheses). The method, then:
Cyclic substituted fused pyrrolocarbazole and isoindolone compounds were examined for their inhibitory effects on the kinase activity of baculovirus-expressed VEGF receptor (human flk-1, KDR, VEGFR2) kinase domain using the procedure described for the trkA kinase ELISA assay described above. The kinase reaction mixture, consisting of 50 mM Hepes, pH 7.4, 40 μM ATP, 10 mM MnCl2, 0.1% BSA, 2% DMSO, and various concentrations of inhibitor, was transferred to PLC-γ/GST-coated plates. VEGFR kinase was added and the reaction was allowed to proceed for 15 min. at 37 C. Detection of phosphorylated product was accomplished by addition of antII-phosphotyrosine antibody (UBI). A secondary enzymeconjugated antibody was delivered to capture the antibody-phosphorylated PLC-γ/GST complex. The activity of the bound enzyme was measured via an amplified detection system (Gibco-BRL). Inhibition data were analyzed using the sigmoidal dose-response (variable slope) equation in GraphPad Prism.

Assay [5] relates to ChAT activity in dissociated rat embryonic spinal cord culture. The assay can be described thus: Enhancement of spinal cord ChAT activity. The assay is classed as cell-based. From the text: As discussed above, CHAT is a specific biochemical marker for functional cholinergic neurons. Cholinergic neurons represent a major cholinergic input into the hippocampal formation, olfactory nucleus, interpeduncular nucleus, cortex, amygdala, and parts of the thalamus. In the spinal cord, the motor neurons are cholinergic neurons which contain CHAT (Phelps et al., J. Comp. Neurol. 273:459-472 (1988)). ChAT activity has been used to study the effects of neurotrophins (e.g., NGF or NT-3) on the survival and/or function of cholinergic neurons. The ChAT assay also serves as an indication of the regulation of ChAT levels within cholinergic neurons.
For example, in these assays, a compound was directly added to a dissociated spinal cord culture. Compounds which increased ChAT activity at least 120% of the control activity were considered active.
Methods: Fetal rat spinal cord cells were dissociated, and experiments were performed as described (Smith et al., J. Cell Biology 101:1608-1621 (1985); Glicksman et al., J. Neurochem. 61:210-221 (1993)). […] ChAT activity was measured after 2 days in vitro using a modification of the Fonnum procedure (Fonnum, J. Neurochem. 24:407-409 (1975)) according to McManaman et al. and Glicksman et al. (McManamnan et al., Developmental Biology 125:311-320 (1988); Glicksman et al., J. Neurochem., supra).

The test system of assay [6] is protein kinase C (UBI; mixed isozymes of a, b, g). The assay can be described thus: Inhibition of protein kinase C activity (Millipore Multiscreen TCA in-plate assay). The assay is classed as biochemical. Here is the method: Protein kinase C activity was assessed using the Millipore Multiscreen TCA “in-plate” assay as described in Pitt, A. M. and Lee, C. (J. Biomol. Screening, 1: 47-51, 1996). Assays were performed in 96-well Multiscreen-DP plates (Millipore). Each […] assay mixture contained 20 mM Hepes, pH 7.4, 10 mM MgCl2, 2.5 mM EGTA, 2.5 mM CaCl2, […] phosphatidyl serine, […] diolein, […] histone H-1 (Fluka), […] [γ-^32P]ATP, 1.5 ng protein kinase C (UBI; mixed isozymes of a, b, g), 0.1% BSA, 2% DMSO, and test cyclic substituted fused pyrrolocarbazole compound. The reaction was allowed to proceed for 10 min at 37° C., then quenched by adding ice cold 50% trichloroacetic acid. The plates were allowed to equilibrate for 30 min at 4° C., then washed with ice cold 25% TCA. Scintillation cocktail was added to the plates, and the radioactivity was determined using Wallac MicroBeta 1450 PLUS scintillation counter. The IC50 values were calculated by fitting the data to the sigmoidal dose-response (variable slope) equation in GraphPad Prism.

Each structure is given as a SMILES string.

T4 sequence (P35968 834-1162 limits assumed): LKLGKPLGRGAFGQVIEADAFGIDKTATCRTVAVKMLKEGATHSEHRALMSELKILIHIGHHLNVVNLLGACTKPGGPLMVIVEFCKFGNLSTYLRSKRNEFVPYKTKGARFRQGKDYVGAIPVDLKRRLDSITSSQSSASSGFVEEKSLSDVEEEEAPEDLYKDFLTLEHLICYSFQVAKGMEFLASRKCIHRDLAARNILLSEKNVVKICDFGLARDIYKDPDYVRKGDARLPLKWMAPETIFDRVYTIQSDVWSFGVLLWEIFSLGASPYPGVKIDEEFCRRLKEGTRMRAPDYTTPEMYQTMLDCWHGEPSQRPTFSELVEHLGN
T2 sequence (P04629 33-796, species assumed): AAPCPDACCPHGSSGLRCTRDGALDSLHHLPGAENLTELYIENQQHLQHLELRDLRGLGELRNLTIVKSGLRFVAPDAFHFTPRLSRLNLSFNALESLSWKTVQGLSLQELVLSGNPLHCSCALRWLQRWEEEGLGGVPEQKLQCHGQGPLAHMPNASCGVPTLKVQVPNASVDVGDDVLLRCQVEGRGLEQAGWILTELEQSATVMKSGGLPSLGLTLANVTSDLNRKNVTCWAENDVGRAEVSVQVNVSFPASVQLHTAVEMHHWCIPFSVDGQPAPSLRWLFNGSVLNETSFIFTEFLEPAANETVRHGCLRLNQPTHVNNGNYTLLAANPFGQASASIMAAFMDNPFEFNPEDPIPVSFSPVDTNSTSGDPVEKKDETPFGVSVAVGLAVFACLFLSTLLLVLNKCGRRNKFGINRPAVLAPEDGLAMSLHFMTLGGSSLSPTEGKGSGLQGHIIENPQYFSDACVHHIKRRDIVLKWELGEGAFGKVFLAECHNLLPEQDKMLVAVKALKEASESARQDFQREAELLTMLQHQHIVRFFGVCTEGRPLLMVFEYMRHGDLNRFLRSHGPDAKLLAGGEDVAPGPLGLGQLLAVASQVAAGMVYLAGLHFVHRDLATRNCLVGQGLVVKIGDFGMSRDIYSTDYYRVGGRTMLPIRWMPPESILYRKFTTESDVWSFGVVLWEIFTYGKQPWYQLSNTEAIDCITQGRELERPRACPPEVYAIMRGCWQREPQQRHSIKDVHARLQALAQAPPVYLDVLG
T3 sequence (P09619 600-962 limits assumed): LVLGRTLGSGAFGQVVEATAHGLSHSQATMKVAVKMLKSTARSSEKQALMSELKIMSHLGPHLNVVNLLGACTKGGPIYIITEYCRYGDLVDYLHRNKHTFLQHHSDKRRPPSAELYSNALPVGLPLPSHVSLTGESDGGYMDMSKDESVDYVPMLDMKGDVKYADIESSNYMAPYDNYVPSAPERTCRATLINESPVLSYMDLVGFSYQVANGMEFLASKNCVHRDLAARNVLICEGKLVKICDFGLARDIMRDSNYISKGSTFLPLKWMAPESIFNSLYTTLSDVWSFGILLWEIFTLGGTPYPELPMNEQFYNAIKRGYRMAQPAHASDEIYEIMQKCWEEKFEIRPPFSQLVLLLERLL
T1 sequence (P04629 440-796 limits assumed): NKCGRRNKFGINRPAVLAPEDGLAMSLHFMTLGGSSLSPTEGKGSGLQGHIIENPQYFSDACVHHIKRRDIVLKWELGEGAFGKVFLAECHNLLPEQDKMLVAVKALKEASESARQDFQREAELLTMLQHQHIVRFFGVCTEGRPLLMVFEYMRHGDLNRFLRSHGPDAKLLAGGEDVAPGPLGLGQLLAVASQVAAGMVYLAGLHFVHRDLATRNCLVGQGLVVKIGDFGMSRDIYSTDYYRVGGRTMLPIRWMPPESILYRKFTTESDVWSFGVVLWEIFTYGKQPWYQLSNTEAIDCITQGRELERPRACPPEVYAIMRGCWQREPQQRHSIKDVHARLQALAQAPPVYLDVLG

In the case of `COCCOC(=O)c1ccc2[nH]c3c4c(c5c(c3c2c1)CNC5=O)-c1ccccc1C4C1CCC(OCCOC)O1` (centres unmarked) [II-52], in assay [1], half-maximal inhibition (IC50) required 27 nM. Further, in assay [2], the “Cell Score @ 100 nM (percent decrease in trk protein band)” value was 2 (2=26-49%) and the “Cell Score @ 1 uM (percent decrease in trk protein band)” value was 3 (3=50-75%). Besides, the inhibition at 0.3 µM in assay [3] (300 nM compound) amounted to 45%.

Turning to `CCNC(=O)OCC1(C2c3ccccc3-c3c4c(c5c6ccccc6n(C(=O)NCC)c5c32)CNC4=O)CCCO1` (centres unmarked) [II-68], the concentration for half-maximal inhibition (IC50) – broadly, the concentration needed to halve the response being measured – in assay [1] came to 245 nM. For the same molecule, the inhibition at 0.3 µM in assay [4] (300 nM compound) came out at 31%; in assay [3] (300 nM compound), 0%.

On to `CCNC(=O)n1c2ccccc2c2c3c(c4c(c21)C(C1(CO)CCCO1)c1ccccc1-4)C(=O)NC3` (centres unmarked) [II-69], for which the IC50 in assay [1] worked out at 24 nM. Moreover, the values for the inhibition at 0.3 µM in assay [4] (300 nM compound) and in assay [3] (300 nM compound) were 49% and 18%, respectively.

With `CC1C=CC(C(O)C2c3ccccc3-c3c4c(c5c([nH]c6ccccc65)c32)CNC4=O)n2c(=O)n(-c3ccccc3)c(=O)n21` (centres unmarked) [II-64], in assay [1], the IC50 is 399 nM. The inhibition at 0.3 µM in assay [4] (300 nM compound) stood at 20%; in assay [3] (300 nM compound) it was 29%.

Consider `CC(C)(C)C(=O)OCC1(C2c3ccccc3-c3c4c(c5c([nH]c6ccccc65)c32)CNC4=O)CCCO1` (mixture of isomers) [II-20], for which, in assay [1], the “trkA kinase activity % Inh. @ 300 nM (values in parentheses)” value was “(39) %”. Moreover, the “Spinal Cord ChAT (% control) Activity at 30 nM” value in assay [5] (30 nM compound) worked out at 132 % control. Also, the “Spinal Cord ChAT (% control) Maximal Activity” value in assay [5] (@ 500 nM) is 191 @ 500 nM % control.

Molecule `COC(=O)[C@H]1CSC(CCn2c3ccccc3c3c4c(c5c(c32)Cc2ccccc2-5)C(=O)NC4)N1` (some centres unmarked) [II-67] returned an IC50 in assay [1] of 555 nM. Also, the results for the inhibition at 0.3 µM in assay [4] (300 nM compound) and in assay [3] (300 nM compound) were 65% and 23%, respectively.

As to `O=C1NCc2c1c1c(c3[nH]c4ccccc4c23)C(C2(O)CCCC2CN2CCOCC2)c2ccccc2-1` (mixture of isomers) [II-17], the “trkA kinase activity % Inh. @ 300 nM (values in parentheses)” value in assay [1] is “(33) %”. Moreover, the “VEGF receptor kinase activity % Inh. @ 300 nM (values in parentheses)” value in assay [4] (300 nM compound) is “(33) %”. In addition, the “PDGFRβ % inh @ 300 nM (values in parentheses)” value in assay [3] (300 nM compound) is “(47) %”.

As to `O=C1NCc2c1c1c(c3c2c2ccccc2n3CC2CC2)C(CC2CC2)c2ccccc2-1` (centres unmarked) [II-65], the IC50 in assay [1] turned out to be 320 nM. Moreover, the inhibition at 0.3 µM was found to be 26% in assay [4] (300 nM compound) and 5% in assay [3] (300 nM compound). In addition, the “Protein kinase C activity, values in parentheses” value in assay [6] (concentration not given) is “(20)”.

In the case of `O=C1NCc2c1c1c(c3[nH]c4ccccc4c23)C(C2CCC(O)O2)c2ccccc2-1` (racemic) [II-23], the IC50 in assay [1] was determined as 19 nM; in assay [4] (40 μM ATP), 79 nM; in assay [6], 644 nM; in assay [3] (20 μM ATP), 648 nM. Besides, the “Cell Score @ 100 nM (percent decrease in trk protein band)” value in assay [2] is on record as 2 (2=26-49%). In addition, the “Cell Score @ 1 uM (percent decrease in trk protein band)” value in assay [2] is 4 (4=76-100%).
